In US10100077B2, “6-aryl-9-glycosylpurines and use thereof” (UNIVERZITA PALACKEHO V OLOMOUCI, priority 2014, dated 2018):

Tests used:
[1] = system: skin fibroblasts BJ and keratinocytes HaCaT; experiment: MTT in vitro cytotoxicity test for skin cells; type: cell-based; details: for IC50: MTT, 72 hour treatment, BJ and HaCaT, maximal concentration 50 microM
Description: MTT assay is a standard test of toxicity based on photometric measurement of the ability of metabolically active cells to reduce MTT (3-(4,5-dimethylthiazol-2-yl)-2,5-diphenyltetrazolium bromide). Using the assay, the effects of 72 hour treatments with several concentrations of the compounds (sixfold dilution, maximal concentration=50 microM) on viability of skin fibroblasts BJ and keratinocytes HaCaT were evaluated. About 5,000 cells were seeded per well of a 96-well plate 24 hours before the treatment. DMSO vehiculum was used as a negative control. After 72 hour treatment, new medium with MTT (Sigma, M2128) was added to a final concentration of 0.5 mg/ml. After 3 hours, medium was removed and resulting formazan in the cells was dissolved in DMSO. The absorbance was measured at 570 nm (640 nm reference wavelength). The IC50 values were calculated from the dose-response curves. 6-Benzylaminopurine riboside and 6-furfurylaminopurine riboside were used as positive controls they were toxic in the MTT test.

[2] = system: skin fibroblasts BJ and keratinocytes HaCaT; experiment: SRB in vitro toxicity test; type: cell-based; details: 72 hour treatment, maximal concentration 50 microM
Description: SRB (sulforhodamine B) assay is a standard toxicity test based on a photometric measurement of the cellular protein content after the staining with sulphorhodamine B. Using the assay, the effects of 72 hour treatments with several concentrations of the compounds (sixfold dilution, maximal concentration=50 microM) on viability of skin fibroblasts BJ and keratinocytes HaCaT were evaluated. About 5,000 cells were seeded per well of a 96-well plate 24 hours before the treatment. DMSO vehiculum was used as a negative non-toxic control. 6-benzylaminopurine riboside a 6-furfurylaminopurin riboside were used as positive toxic controls. After three days the medium was removed and the cells fixed with 10% (wt/vol) trichloroacetic acid. After the extensive washing in distilled water, 0.4% (wt/vol) solution of SRB in acetic acid was added and the fixed cells were stained for 30 minutes. The unbound stain was washed away by distilled water and the bound SRB was solubilized in unbuffered 10 mM Tris base. Absorbance was measured at 564 nm. IC50 values were calculated from dose-response curves.

[3] = system: breast cancer (MCF-7); experiment: Calcein AM cytotoxicity assay, MCF-7; type: cell-based; details: 72 hrs
Source text: (§1) One of the parameters used as the base for cytotoxic analysis is metabolic activity of viable cells, such as microtiter assay, which uses the Calcein AM, is now widely used to quantitate cell proliferation and cytotoxicity. The quantity of reduced Calcein AM corresponds to the number of viable cells in culture. The cell lines of breast cancer (MCF-7), mousse fibroblasts (NIH3T3), human erythromleukemia (K562) were used for routine screening of cytotoxicity of the compounds. The cells were maintened in Nunc/Corning 80 cm^2 plastic bottles and grown in media for cell culture (DMEM containing 5 g/l of glucose, 2 mM of glutamin, 100 U/ml of penicilin, […] of streptomycin, 10% of fetal bovine serum and sodium hydrogencarbonate). Cell suspensions were diluted according to cell types and according to expected final cell density (10^4 of cells per well according to characteristics of cell growth), pipetted 80 μl of cell suspension on 96-well microtiter plates. Innoculates were stabilized by 24 hrs preincubation at 37° C. in CO2. Particular concentrations of tested compounds were added in time zero as 20 μl aliquotto wells of microtiter plates. Usually, the compounds were diluted into six concentrations in four-fold dilution series. In routine testing, the highest well concentration was 166.7 μM, of change dependent on the substance. All drug concentrations were examined in duplicates. The incubation of cells with tested derivatives lasted 72 hrs at 37° C., 100% humidity and in the atmosphere of CO2. At the end of the incubation period, the cells were tested and analysed according to the addition of Calcein AM (Molecular probes) solution and the incubation lasted for next 1 hour. Fluorescence (FD) was measured using Labsystem FIA reader Fluorskan Ascent (Microsystems). The survival of tumor cells (The tumor cell survival-TCS) was counted according to equation: […]=(FDwell with derivative/FDcontrol well)×100%. The value of GI50, that is equal to the concentration of compound at which 50% of tumour cells are terminated. To evaluate the antitumor activity was tested toxicity of new derivatives on panel of cell lines of different histogenetic and species origin (Tab. 7, G150 concentration given in μM). […] Effective derivatives killed tumor cells in concentrations close to 0.1 to 50. None of the newly prepared compounds only reached the value.

[4] = system: human erythromleukemia (K562); experiment: Calcein AM cytotoxicity assay, K562; type: cell-based; details: 72 hrs
Source text: as §1

[5] = system: mousse fibroblasts (NIH3T3); experiment: Calcein AM cytotoxicity assay, NIH3T3; type: cell-based, mouse; details: 72 hrs
Source text: as §1

[6] = system: detached leaf segments of Triticum aestivum cv. Hereward; experiment: Senescence bioassay on wheat leaf segments (chlorophyll retention); details: for activity (%) [10^−4 mol · l^−1 BAP = 100%]: chlorophyll retention at maximum effective concentration, 96 h dark; for maximum effective concentration: 96 h in the dark at 25° C.
Description: Seeds of winter wheat, Triticum aestivum cv. Hereward, were washed under running water for 24 hours and then sown on vermiculite soaked with Knop's solution. They were placed in the growth chamber at 25° C. with a 16/8 h light period at 50 μmol·m^−2·s^−1. After 7 days, the first leaf was fully developed and the second leaf had started to grow. A tip section of the first leaf, approximately 35 mm long, was removed from 5 seedlings and trimmed slightly to a combined weight of 100 mg. The basal ends of the five leaf tips were placed in the wells of a microtiter polystyrene plate containing 150 μL, of the tested derivative solution each. The entire plate was inserted into a plastic box lined with paper tissues soaked in distilled water to prevent leaf sections from drying out. After 96 h incubation in the dark at 25° C., the leaves were removed and chlorophyll extracted by heating at 80° C. for 10 min in 5 mL of 80% ethanol (v/v). The sample volume was then restored to 5 mL by the addition of 80% ethanol (v/v). The absorbance of the extract was recorded at 665 nm. In addition, chlorophyll extracts from fresh leaves and leaf tips incubated in deionised water were measured. The results are means of five replicates and the entire test was repeated twice. […] The compounds to be tested were dissolved in dimethylsulfoxide (DMSO) and the solution brought up to 10^−3M with distilled water. This stock solution was further diluted with the respective media used for the biotest to a concentration ranging from 10^−8M to 10^−4M. […] The activity obtained for 10^−4 M of BAP was postulated as 100%.

Question: For `Nc1cccc(CNc2ncnc3c2ncn3[C@@H]2O[C@H](CO)[C@@H](O)[C@@H]2O)c1` [6-(3-aminobenzylamino)-9-β-D-arabinofuranosylpurine], which IC50 ([1]; Homo sapiens) is on record?
Answer: > 50 µM

Question: And the IC50 ([2]; Homo sapiens)?
Answer: > 50 µM

Question: With `OC[C@H]1OC(n2cnc3c(NCc4ccco4)ncnc32)[C@H](O)[C@@H]1O` (stereo partly shown) [6-furfurylamino-9-ribosylpurine, reference compound] as the molecule, how does the IC50 ([1]; Homo sapiens) read?
Answer: ≤ 3 µM

Question: What about the “toxicity in the MTT test” value ([1]; positive controls) of the same molecule?
Answer: toxic

Question: And the IC50 ([2]; Homo sapiens)?
Answer: ≤ 3 µM

Question: For `OC[C@H]1O[C@@H](n2cnc3c(NCc4cccc(F)c4)ncnc32)C[C@@H]1O` [3-fluorobenzylamino-9-β-D-2′-deoxyribosylpurine], which GI50 [3] is on record?
Answer: > 100 µM

Question: And the GI50 [4]?
Answer: > 100 µM

Question: And the GI50 [5]?
Answer: > 100 µM

Question: For `OC[C@H]1O[C@@H](n2cnc3c(NCc4cccc(Cl)c4)ncnc32)C[C@@H]1O` [3-chlorobenzylamino-9-β-D-2′-deoxyribosylpurine], which GI50 [3] is on record?
Answer: > 100 µM

Question: And the GI50 [4]?
Answer: > 100 µM

Question: What about the GI50 [5] of the same molecule?
Answer: > 100 µM

Question: With `OC[C@H]1O[C@@H](n2cnc3c(NCc4cccc(I)c4)ncnc32)[C@@H](O)[C@@H]1O` [6-(3-iodobenzylamino)-9-β-D-arabinofuranosylpurine] as the molecule, how does the “activity (%) [10^−4 mol · l^−1 BAP = 100%]” value (“activity (%)” below) [6] read?
Answer: 198 ± 4%

Question: What about the IC50 ([1]; Homo sapiens) of the same molecule?
Answer: > 50 µM

Question: What about the IC50 ([2]; Homo sapiens) of the same molecule?
Answer: > 50 µM

Question: How did the “activity (%)” value [6] turn out when `OC[C@H]1O[C@@H](n2cnc3c(NCc4cccc(Br)c4)ncnc32)[C@@H](O)[C@@H]1O` [6-(3-bromobenzylamino)-9-β-D-arabinofuranosylpurine] was run?
Answer: 198 ± 10%

Question: Which maximum effective concentration [6] does the source give for `OC[C@H]1O[C@@H](n2cnc3c(NCc4cccc(I)c4)ncnc32)[C@H](O)[C@@H]1O` [6-(3-iodobenzylamino)-9-riboside, reference compound] here?
Answer: 10^−4 mol · l^−1

Question: What about the “activity (%)” value [6] of the same molecule?
Answer: 58 ± 19%

Question: What does the source list for `OC[C@H]1O[C@@H](n2cnc3c(NCc4cccc(Br)c4)ncnc32)[C@H](O)[C@@H]1O` [6-(3-bromobenzylamino)-9-riboside, reference compound]?
Answer: maximum effective concentration [6]: 10^−4 mol · l^−1; activity (%) [10^−4 mol · l^−1 BAP = 100%] [6]: 89 ± 10%

Question: `OC[C@H]1O[C@@H](n2cnc3c(NCc4ccccc4F)ncnc32)[C@@H](O)[C@@H]1O` [2-fluorobenzylamino-9-β-D-arabinofuranosylpurine] was tested. Which GI50 [3] did it give?
Answer: 87 µM

Question: And the GI50 [4]?
Answer: > 100 µM

Question: What about the GI50 [5] of the same molecule?
Answer: > 100 µM

Question: How did the GI50 [3] turn out when `OC[C@H]1O[C@@H](n2cnc3c(NCc4ccc(Cl)cc4)ncnc32)[C@@H](O)[C@@H]1O` [4-chlorobenzylamino-9-β-D-arabinofuranosylpurine] was run?
Answer: > 100 µM

Question: And the GI50 [4]?
Answer: > 100 µM

Question: What about the GI50 [5] of the same molecule?
Answer: > 100 µM

Question: What does the source list for `OC[C@H]1O[C@@H](n2cnc3c(NCc4cccc(O)c4)ncnc32)[C@@H](O)[C@@H]1O` [6-(3-hydroxybenzylamino)-9-β-D-arabinofuranosylpurine]?
Answer: IC50 ([1]; Homo sapiens): > 50 µM; IC50 ([2]; Homo sapiens): > 50 µM

Question: “2,4-dimethoxybenzylamino-9-β-D-arabinofuranosylpurine” was tested. Which GI50 [3] did it give?
Answer: 98 µM

Question: What about the GI50 [4] of the same molecule?
Answer: > 100 µM

Question: And the GI50 [5]?
Answer: > 100 µM

Question: `Cc1ccc(CNc2ncnc3c2ncn3[C@@H]2O[C@H](CO)[C@@H](O)[C@@H]2O)cc1` [4-methylbenzylamino-9-β-D-arabinofuranosylpurine] was tested. Which GI50 [3] did it give?
Answer: 95 µM

Question: What about the GI50 [4] of the same molecule?
Answer: > 100 µM

Question: And the GI50 [5]?
Answer: > 100 µM

Question: How did the IC50 ([1]; Homo sapiens) turn out when `COc1cccc(CNc2ncnc3c2ncn3[C@@H]2O[C@H](CO)[C@@H](O)[C@@H]2O)c1OC` [6-(2,3-dimethoxybenzylamino)-9-β-D-arabinofuranosylpurine] was run?
Answer: 49 µM

Question: And the IC50 ([2]; Homo sapiens)?
Answer: > 50 µM

Question: `COc1ccc(CNc2ncnc3c2ncn3[C@@H]2O[C@H](CO)[C@@H](O)[C@H]2O)cc1OC` [6-(3,4-dimethoxybenzylamino)-9-riboside, reference compound] was tested. Which maximum effective concentration [6] did it give?
Answer: 10^−4 mol · l^−1

Question: And the “activity (%)” value [6]?
Answer: 47 ± 6%

Question: How did the GI50 [3] turn out when `OC[C@H]1O[C@@H](n2cnc3c(NCc4ccc(O)cc4)ncnc32)[C@@H](O)[C@@H]1O` [4-hydroxybenzylamino-9-β-D-arabinofuranosylpurine] was run?
Answer: > 100 µM

Question: What about the GI50 [4] of the same molecule?
Answer: > 100 µM

Question: What about the GI50 [5] of the same molecule?
Answer: 87 µM

Question: How did the IC50 ([1]; Homo sapiens) turn out when `OC[C@H]1O[C@@H](n2cnc3c(NCc4ccccc4Cl)ncnc32)[C@@H](O)[C@@H]1O` [6-(2-chlorobenzylamino)-9-β-D-arabinofuranosylpurine] was run?
Answer: > 50 µM

Question: And the IC50 ([2]; Homo sapiens)?
Answer: > 50 µM

Question: `COc1ccc(CNc2ncnc3c2ncn3[C@@H]2O[C@H](CO)[C@@H](O)[C@@H]2O)cc1OC` [6-(3,4-dimethoxybenzylamino)-9-β-D-arabinofuranosylpurine] was tested. Which “activity (%)” value [6] did it give?
Answer: 147 ± 6%

Question: With `COc1ccc(CNc2ncnc3c2ncn3[C@@H]2O[C@H](CO)[C@@H](O)[C@@H]2O)c(OC)c1OC` [6-(2,3,4-trimethoxybenzylamino)-9-β-D-arabinofuranosylpurine] as the molecule, how does the IC50 ([1]; Homo sapiens) read?
Answer: 48 µM

Question: And the IC50 ([2]; Homo sapiens)?
Answer: > 50 µM

Question: With `OC[C@H]1O[C@@H](n2cnc3c(NCc4cccc(Cl)c4)ncnc32)[C@H](O)[C@@H]1O` [6-(3-chlorobenzylamino)-9-riboside, reference compound] as the molecule, how does the maximum effective concentration [6] read?
Answer: 10^−4 mol · l^−1

Question: And the “activity (%)” value [6]?
Answer: 72 ± 8%

Question: What does the source list for `OC[C@H]1O[C@@H](n2cnc3c(NCc4ccco4)ncnc32)C[C@@H]1O` [6-(furfurylamino)-9-β-D-2′-deoxyribofuranosylpurine]?
Answer: IC50 [1]: > 50 µM; IC50 [2]: > 50 µM

Question: `OC[C@H]1O[C@@H](n2cnc3c(NCc4ccc(Br)cc4)ncnc32)[C@@H](O)[C@@H]1O` [6-(4-bromobenzylamino)-9-β-D-arabinofuranosylpurine] was tested. Which “activity (%)” value [6] did it give?
Answer: 176 ± 11%

Question: Which “activity (%)” value [6] does the source give for `OC[C@H]1O[C@@H](n2cnc3c(NCc4ccccc4Br)ncnc32)[C@@H](O)[C@@H]1O` [6-(2-bromobenzylamino)-9-β-D-arabinofuranosylpurine] here?
Answer: 186 ± 19%

Question: What does the source list for `OC[C@H]1O[C@@H](n2cnc3c(NCc4ccc(Cl)cc4Cl)ncnc32)[C@H](O)[C@@H]1O` [6-(2,4-dichlorbenzylamino)-9-riboside, reference compound]?
Answer: maximum effective concentration [6]: 10^−4 mol · l^−1; activity (%) [10^−4 mol · l^−1 BAP = 100%] [6]: 5 ± 1%

Question: How did the IC50 [1] turn out when `OC[C@H]1O[C@@H](n2cnc3c(NCc4ccccc4O)ncnc32)C[C@@H]1O` [6-(2-hydroxybenzylamino)-9-β-D-2′-deoxyribofuranosylpurine] was run?
Answer: > 50 µM

Question: What about the IC50 [2] of the same molecule?
Answer: > 50 µM
